# Source: patent publication US7968591B2, “1,3-disubstituted 4-methyl-1H-pyrrole-2-carboxamides and their use in medicaments” (Gruenenthal GmbH, priority 2006, dated 2011)
# System: batrachotoxin (BTX) binding site of the sodium channel
# Assay: Affinity for the batrachotoxin (BTX) binding site of the sodium channel
# Conditions: rat cerebrocortex synaptosomes, [3H]-Batrachotoxinin A20α benzoate 10 nM
row,Compound,BTX (Na+ channel) (% inhibition at 10 μM)
1,"COc1ccc(-c2c(C)cn(C)c2C(=O)N2CCN(c3cccc(Cl)c3)CC2)cc1 [Example 70, [4-(3-chlorophenyl)-piperazin-1-yl]-[3-(4-methoxyphenyl)-1,4-dimethyl-1H-pyrrol-2-yl]-methanone]",59%
2,"Cc1cn(Cc2ccc(C(F)(F)F)cc2)c(C(=O)NCCN2CCCC2)c1-c1ccco1 [Example 38, 3-furan-2-yl-4-methyl-1-(4-trifluoromethylbenzyl)-1H-pyrrole-2-carboxylic acid (2-pyrrolidin-1-ylethyl)-amide]",94%
3,"COc1cccc(CNC(=O)c2c(-c3ccccc3)c(C)cn2Cc2ccccc2)c1 [Example 44, 1-benzyl-4-methyl-3-phenyl-1H-pyrrole-2-carboxylic acid 3-methoxybenzylamide]",47%
4,"COc1ccc(-c2c(C)cn(Cc3ccc(F)cc3)c2C(=O)N2CCCC2CN2CCCC2)cc1 (stereo not drawn) [Example 64, [1-(4-fluorobenzyl)-3-(4-methoxyphenyl)-4-methyl-1H-pyrrol-2-yl]-(2-pyrrolidin-1-ylmethylpyrrolidin-1-yl)-methanone]",96%
5,"COc1cc(OC)c(CN2CCN(C(=O)c3c(-c4ccc(C)cc4)c(C)cn3C)CC2)c(OC)c1 [Example 49, (1,4-dimethyl-3-p-tolyl-1H-pyrrol-2-yl)-[4-(2,4,6-trimethoxybenzyl)-piperazin-1-yl]-methanone]",89%
6,"COc1ccc(-c2c(C)cn(C)c2C(=O)NCc2ccc(OC)cc2OC)cc1 [Example 76, 3-(4-methoxyphenyl)-1,4-dimethyl-1H-pyrrole-2-carboxylic acid 2,4-dimethoxybenzylamide]",41%
